This experiment relates to SH-SY5Y. Put plainly: Neuroprotective activity against 6-OHDA induced cell death in human SH-SY5Y cells preincubated with 6-hyrdoxydopamine followed by compound addition and measured after 24 hrs by MTT assay. In kind it is functional, cell-based. (Formazan colour is commonly taken as a measure of viable cells.)
What is called EC50 is the concentration giving half of the maximal effect. A high value points to weaker potency. Compound `COc1cc(/C=C/C(=O)CC(=O)/C=C/c2ccc(O)c(OC)c2)ccc1O` [CURCUMIN] returned an EC50 of 5290 nM.

As for `CC[C@H]1CCc2oc(=O)ccc2[C@H]1O`, the EC50 was 290 nM.

On to `CCCCCc1cccc(=O)o1`, for which the EC50 turned out to be 1280 nM.

The values above are taken from ChEMBL document CHEMBL5120968, “Syzysamalactone, an Unusual 11-Carbon δ-Lactone Derivative from the Fresh Ripe Fruits of Syzygium samarangense (Wax Apple)” (J Nat Prod, 2022).
